From PubChem BioAssay (NCI)
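Assay format: 96-well plates, 48-hour exposure. GI50 = concentration required for 50% inhibition of growth. TGI is the concentration that stops growth completely.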

What was measured:
Assay in all cases: growth of human tumour cells (NCI), 48 h
SNB-75 CNS = test system: SNB-75 CNS
SK-MEL-5 melanoma = test system: SK-MEL-5 melanoma
HOP-62 NSCLC = test system: HOP-62 NSCLC
SF-539 CNS = test system: SF-539 CNS
IGROV1 ovarian = test system: IGROV1 ovarian
HT29 colon = test system: HT29 colon
SW-620 colon = test system: SW-620 colon
MALME-3M melanoma = test system: MALME-3M melanoma
SN12C renal = test system: SN12C renal
OVCAR-4 ovarian = test system: OVCAR-4 ovarian

| Structure (SMILES) | GI50 (SNB-75 CNS) [µM] | TGI (SNB-75 CNS) [µM] | GI50 (SK-MEL-5 melanoma) [µM] | TGI (SK-MEL-5 melanoma) [µM] | GI50 (HOP-62 NSCLC) [µM] | TGI (HOP-62 NSCLC) [µM] | GI50 (SF-539 CNS) [µM] | TGI (SF-539 CNS) [µM] | GI50 (IGROV1 ovarian) [µM] | TGI (IGROV1 ovarian) [µM] | GI50 (HT29 colon) [µM] | TGI (HT29 colon) [µM] | GI50 (SW-620 colon) [µM] | TGI (SW-620 colon) [µM] | GI50 (MALME-3M melanoma) [µM] | TGI (MALME-3M melanoma) [µM] | GI50 (SN12C renal) [µM] | TGI (SN12C renal) [µM] | GI50 (OVCAR-4 ovarian) [µM] | TGI (OVCAR-4 ovarian) [µM] |
| --- | --- | --- | --- | --- | --- | --- | --- | --- | --- | --- | --- | --- | --- | --- | --- | --- | --- | --- | --- | --- |
| O=c1oc2c(C(F)(F)F)cccc2cc1-c1csc(Nc2ccc(OCCF)cc2)n1 | 0.0302 | 12 | 0.0658 | 0.497 | 0.0378 | > 36.8 | 0.0248 | 0.07 | 0.0757 | > 37 | 0.032 | 1.02 | 0.0468 | > 100 | 6.48 | > 91.7 | 0.271 | > 64.4 | 0.077 | > 66.7 |
| CC#Cc1nc(Nc2cc(C)[nH]n2)c2ccccc2n1 | 1.48 | 15.4 | 1.76 | 3.61 | 12.4 | 39.7 | 3.81 | 17.6 | 2.58 | 15.4 | 3.71 | 16.9 | 4.54 | 32.4 | 7.24 | 25.2 | 3.08 | 10.4 | 3.46 | > 100 |
| O=C(O)C(Oc1nc(=S)[nH]c(=S)[nH]1)(c1ccc(Cl)cc1)c1ccc(Cl)cc1 | – | > 100 | – | > 100 | – | > 100 | – | > 100 | – | > 100 | – | > 100 | – | > 100 | – | > 100 | – | > 100 | – | > 100 |
| CCN(CC)CCNC(=O)c1cccc2nc3ccccc3nc12 | – | > 100 | – | > 100 | – | 33.8 | – | 28.8 | – | > 100 | – | 28.3 | – | > 47.1 | – | 24.6 | – | > 100 | – | 38.8 |
| CN1C/C(=C\C=C\c2ccccc2)C(=O)/C(=C/C=C/c2ccccc2)C1 | – | > 100 | – | > 100 | – | > 100 | – | > 100 | – | > 100 | – | > 100 | – | > 100 | – | > 100 | – | > 100 | – | > 100 |
| O=C1C(Cl)=C(Nc2cccc(O)c2)C(=O)N1Cc1ccc(Cl)cc1Cl | 6.1 | 20.6 | 0.84 | 5.64 | 14.4 | 30.5 | 0.561 | 13.8 | 1.17 | 13.8 | 1.29 | 90.3 | 0.565 | 15.7 | 1.18 | 14.9 | 2.67 | 15.1 | 2.9 | 15 |
| CC(=C/c1ccccc1)/C=C1/NC(=S)N(/C=C2\C(=O)Oc3ccccc3C2=O)C1=O | – | > 100 | – | > 86.9 | – | > 100 | – | > 100 | 86.7 | > 100 | > 100 | > 100 | > 100 | > 100 | > 100 | > 100 | – | > 100 | – | > 100 |
| O=C(CCc1ccc(O)cc1)N/N=C/c1cc(Br)ccc1O | 5.25 | > 100 | 3.4 | 18.1 | 6.76 | 57.6 | 4.03 | 35.4 | 6.23 | 93.3 | 23.7 | 99.4 | 3.83 | > 100 | 4.01 | 28.3 | 4.76 | 73.6 | 3.19 | 82 |
| O=C1/C(=C/c2ccc(Br)cc2)CCC/C1=C\c1ccc(Br)cc1 | – | 69.3 | – | 27.1 | – | 53.3 | – | 33.8 | – | 38.7 | – | 4.27 | – | 89 | – | 51 | – | 53 | – | 36.2 |
| CC(C)=CCCC(C)C1=C(O)C(=O)C(C)=CC1=O (stereo not drawn) | – | 37.6 | – | 24.6 | – | 36.9 | – | 41.9 | – | 32.8 | – | > 64 | – | > 50.4 | – | 23 | – | 34.6 | – | 17.4 |
| O=C(O)c1cc2ccccc2c2c1C(=O)c1ccccc1-2 | – | > 100 | – | > 100 | – | > 100 | – | > 100 | – | > 100 | – | > 100 | – | > 100 | – | > 100 | – | > 100 | – | > 100 |
| CCN(CC)c1ccc(/C=C/C=C2\NC(=O)NC2=O)cc1 | 2.67 | 79.5 | 1.17 | 13.7 | 3.64 | > 100 | 2.33 | 8.6 | 3.57 | > 100 | 1.82 | 9.25 | 3.77 | > 100 | 28.7 | > 100 | 9.41 | > 100 | 9.01 | > 100 |
| Nc1ncc(-c2cccc(S(N)(=O)=O)c2)c2scc(-c3ccc(F)c(Cl)c3)c12 | 6.11 | > 23 | 4 | 7.46 | 5.47 | 12.6 | 5.27 | 13.2 | 6.58 | 22.3 | 5 | 15.3 | 6.21 | 14.3 | 6.94 | 16.6 | 5.74 | > 23.2 | 6.65 | > 23.7 |
| CN(C)C(=O)Oc1c(-c2ccccc2)c(=O)n2c3ccccc3n3c(=O)n(C)c(=O)c1c23 | – | > 100 | – | > 100 | – | > 100 | – | > 100 | – | > 100 | – | > 100 | – | > 100 | – | > 100 | – | > 100 | – | > 100 |
| O=C(CCC(=O)C1CCC/C1=N/O)Nc1ccc(Cl)cc1 (stereo not drawn) | – | > 100 | – | > 100 | – | > 100 | – | > 100 | – | > 100 | – | > 100 | – | > 100 | – | > 100 | – | > 100 | – | > 100 |
| COc1ccc2ccc3oc([N+](=O)[O-])cc3c2c1 | 0.166 | 0.527 | 0.104 | 0.228 | 1.03 | 6.34 | 0.275 | 1.07 | 0.246 | 0.877 | 0.202 | 1.89 | 0.236 | 2.14 | 0.187 | 0.393 | 0.311 | 5.32 | 0.828 | 5.41 |
| COc1c(B(O)O)cc(F)cc1-c1nc2ccc3[nH]ncc3c2c2c1CCCC2 | < 0.01 | 0.0607 | 1.99 | 7.34 | < 0.0212 | 11.5 | 0.0686 | 2.24 | 1.49 | 11.2 | 3.07 | 21.1 | 0.66 | 11.2 | 3.54 | 6.82 | 1.15 | 15.3 | 3.8 | 12.1 |
| Cc1cc(Nc2cc(N)ncn2)c(=O)n2c1C(=O)NC21CCCCC1 | 9.32 | > 100 | > 100 | > 100 | 31.2 | > 100 | 94.6 | > 100 | 46.7 | > 100 | > 100 | > 100 | > 100 | > 100 | > 100 | > 100 | > 100 | > 100 | > 100 | > 100 |
| Cc1cccc(Cc2cnc(NC(=O)CCc3ccc(C)o3)s2)c1 | 0.165 | 5.67 | 0.107 | 6.08 | 0.345 | > 55.6 | 0.202 | 0.642 | 0.555 | > 100 | 0.169 | 4.04 | 0.142 | > 100 | – | > 100 | 0.525 | > 100 | 1.23 | > 100 |
